Entries after “also recorded” stand apart in the source; their conditions may differ.
Legend:
[1] = Body weight of TBI mice on PID21; type: in vivo, CD1 mice; conditions: for body weight: measured on PID21
[2] = Deaths during surgery or post-TBI drug treatment; type: in vivo, CD1 mice; conditions: intranasal, day 4 to day 8 after CCI
5-HT2A receptor = 5-HT2A receptor (Homo sapiens, UniProt P28223); conditions: cited from earlier work
5-HT1A = biological target: T1, 5-HT1A (Homo sapiens, UniProt P08908); conditions: cited from earlier work
T1 sequence (P08908 1-422): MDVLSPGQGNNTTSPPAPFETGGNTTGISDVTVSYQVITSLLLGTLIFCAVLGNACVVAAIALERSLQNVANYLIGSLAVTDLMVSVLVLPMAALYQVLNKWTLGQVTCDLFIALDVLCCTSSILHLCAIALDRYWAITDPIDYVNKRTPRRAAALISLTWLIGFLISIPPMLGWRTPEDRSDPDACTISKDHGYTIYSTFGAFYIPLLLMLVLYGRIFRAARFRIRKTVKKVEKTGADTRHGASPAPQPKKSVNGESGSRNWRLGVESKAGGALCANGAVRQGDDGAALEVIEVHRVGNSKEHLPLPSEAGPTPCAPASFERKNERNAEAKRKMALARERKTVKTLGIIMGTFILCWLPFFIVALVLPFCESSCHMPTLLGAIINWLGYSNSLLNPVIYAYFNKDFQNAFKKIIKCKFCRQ

cluster headache (CH) = conditions: low-dose psilocybin; cited from earlier work
[3] = system: primary cortical neuronal culture (PCN); experiment: Glutamate neurotoxicity in primary cortical neuronal culture, MAP2 immunostaining; conditions: Glu 100 µM
TBI mice = experiment: Morris water maze test in a mouse model of traumatic brain injury (controlled cortical impact)
[4] = high dose Psilocybin, day 4 to day 8, PID 10, 14 and 21

Sequence of 5-HT2A receptor (P28223 whole entry): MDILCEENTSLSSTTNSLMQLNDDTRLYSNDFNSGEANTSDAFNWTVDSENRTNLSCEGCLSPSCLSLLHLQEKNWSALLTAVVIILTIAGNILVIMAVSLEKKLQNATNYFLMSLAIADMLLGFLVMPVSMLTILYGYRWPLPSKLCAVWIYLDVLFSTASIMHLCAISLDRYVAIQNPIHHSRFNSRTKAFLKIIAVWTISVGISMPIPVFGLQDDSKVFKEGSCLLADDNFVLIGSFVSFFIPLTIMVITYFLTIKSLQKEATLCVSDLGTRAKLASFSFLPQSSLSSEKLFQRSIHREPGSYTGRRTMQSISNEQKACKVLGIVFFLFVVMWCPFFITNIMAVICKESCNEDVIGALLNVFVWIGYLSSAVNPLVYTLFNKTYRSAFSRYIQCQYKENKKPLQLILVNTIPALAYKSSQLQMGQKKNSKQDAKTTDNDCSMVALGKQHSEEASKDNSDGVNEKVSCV

SMILES | Body weight (in words) ([1]; PID21) | body weight ([1]; Psi-H (high dose)) | body weight ([1]; Psi-L (low dose)) | Animal deaths during post-TBI drug treatment [2] | Agonist activity at 5-HT2A receptor (5-HT2A receptor) | Agonist activity at 5-HT1A (5-HT1A) | Effect on cluster headache (cluster headache (CH)) | Antagonism of glutamate-mediated reduction of MAP2 immunoreactivity (neuronal loss) ([3]; PSI 100 nM or 1 μM, n=5-6 per group) | No. of crossing (average number of platform crossings) (TBI mice; Psi-H (high dose), Day 3 (PID3, before drug treatment)) | No. of crossing (average number of platform crossings) (TBI mice; Psi-H (high dose, i.n. day 4 to day 8 after CCI), Day 10) | No. of crossing (average number of platform crossings) (TBI mice; Psi-H (high dose, i.n. day 4 to day 8 after CCI), Day 14) | No. of crossing (average number of platform crossings) (TBI mice; Psi-H (high dose, i.n. day 4 to day 8 after CCI), Day 21) | No. of crossing (average number of platform crossings) (TBI mice; Psi-L (low dose), Day 3 (PID3, before drug treatment)) | No. of crossing (average number of platform crossings) (TBI mice; Psi-L (low dose, i.n. day 4 to day 8 after CCI), Day 10) | No. of crossing (average number of platform crossings) (TBI mice; Psi-L (low dose, i.n. day 4 to day 8 after CCI), Day 14) | No. of crossing (average number of platform crossings) (TBI mice; Psi-L (low dose, i.n. day 4 to day 8 after CCI), Day 21) | Average number of platform crossings in TBI mice (in words) (TBI mice; [4]) | Time in the target area in TBI mice (in words) (TBI mice; [4]) | Cognitive function in TBI mice (Morris water maze) (TBI mice; i.n. starting 4 days after TBI for 5 days) | Effect on MAP2 immunoreactivity (MAP2-ir) vs. vehicle ([3]; 48 hrs)
CN(C)CCc1c[nH]c2cccc(OP(=O)(O)O)c12 [Psilocybin, 4-phosphoryloxy-N,N-dimethyltryptamine] | did not significantly alter | 34.7 ± 0.87 g | 35.71 ± 0.68 g | No animal died | strong agonist | moderate agonist | can prevent | not significantly altered; also recorded: non-significant trend; also recorded: not significantly antagonized; also recorded: did not significantly alter | 4.43 ± 0.69 | 6.00 ± 0.85 | 6.00 ± 0.44 | 6.00 ± 0.66 | 3.57 ± 0.90 | 4.14 ± 0.51 | 4.43 ± 0.61 | 3.29 ± 0.57 | significantly increased | significantly increased | significantly improved | –
N[C@@H](CCC(=O)O)C(=O)O [Glu, glutamate] | – | – | – | – | – | – | – | – | – | – | – | – | – | – | – | – | – | – | – | significantly reduced
